In patent US12350270B2, “Antimalarial agents” (Merck Sharp & Dohme LLC, priority 2019, dated 2025):

System: parasites (ring stage, in human red blood cell culture)
Experiment: Parasite LDH growth assay (antiparasite potency, Parasite Assay)
Format: cell-based, Plasmodium falciparum
Settings: 0.7% rings, 2% haematocrit, 72 hours at 37° C., LDH readout of parasite growth
Outline: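 Ring-stage parasites at 0.7% parasitemia and 2% haematocrit, in RPMI-Hepes/bicarbonate with 5% heat-inactivated human serum and 0.5% albumax, were added to compound-containing medium. Cultures grew 72 h at 37 °C in gassed humidified boxes. Plates were then frozen overnight at −80 °C, thawed 4 h, and growth was measured by LDH assay.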

In order of rising EC50:
1. CCC1(CC)CC(=O)N([C@H]2c3cc(C(=O)N[C@@H]4c5ccccc5C[C@H]4O)ccc3OCC2OC)C(=N)N1 (stereo partly drawn) [Example 72A, (3R,4S)-4-(4,4-diethyl-2-imino-6-oxotetrahydropyrimidin-1(2H)-yl)-N-((lR,2R)-2-hydroxy-2,3-dihydro-1H-inden-1-yl)-3-methoxychromane-6-carboxamide]  0.5 nM
2. CCC1(CC)CC(=O)N([C@H]2c3cc(C(=O)NC4c5ccccc5CC4(C)O)ccc3OC2(C)COC)C(=N)N1 (stereo partly drawn) [Example 76B, (2S,3S)-3-(4,4-diethyl-2-imino-6-oxotetrahydropyrimidin-1(2H)-yl)-N-(2-hydroxy-2-methyl-2,3-dihydro-1H-inden-1-yl)-2-(methoxymethyl)-2-methyl-2,3-dihydrobenzofuran-5-carboxamide]  1.1 nM
3. CCC1(CC)CC(=O)N([C@H]2c3cc(C(=O)NC4c5ccccc5CC4(C)O)ccc3OC2(C)COC)C(=N)N1 (stereo partly drawn) [Example 76A, (2S,3S)-3-(4,4-diethyl-2-imino-6-oxotetrahydropyrimidin-1(2H)-yl)-N-(2-hydroxy-2-methyl-2,3-dihydro-1H-inden-1-yl)-2-(methoxymethyl)-2-methyl-2,3-dihydrobenzofuran-5-carboxamide]  8.5 nM
4. CCC1(CC)CC(=O)N([C@H]2c3cc(C(=O)NC4c5ccccc5CC4(C)O)ccc3OC2(C)COC)C(=N)N1 (stereo partly drawn) [Example 77B, (2S,3S)-3-(4,4-diethyl-2-imino-6-oxotetrahydropyrimidin-1(2H)-yl)-N-(2-hydroxy-2-methyl-2,3-dihydro-1H-inden-1-yl)-2-(methoxymethyl)-2-methyl-2,3-dihydrobenzofuran-5-carboxamide]  21.4 nM
5. CCC1(CC)CC(=O)N([C@H]2c3cc(C(=O)NC4c5ccccc5CC4(C)O)ccc3OC2(C)COC)C(=N)N1 (stereo partly drawn) [Example 77A, (2S,3S)-3-(4,4-diethyl-2-imino-6-oxotetrahydropyrimidin-1(2H)-yl)-N-(2-hydroxy-2-methyl-2,3-dihydro-1H-inden-1-yl)-2-(methoxymethyl)-2-methyl-2,3-dihydrobenzofuran-5-carboxamide]  57.1 nM

Same assay, conditions: Plasmodium falciparum, Erythrocyte, 72 h, 0.7% rings, 2% haematocrit, 72 hours at 37° C., LDH readout of parasite growth

In order of falling EC50:
1. CC1(C)CC(=O)N(C2CC(C)(C)c3ccc(C(=O)N[C@@H]4c5ccccc5C[C@@]4(C)O)cc32)C(=N)N1 (stereo partly drawn) [Example 93, N-[(1R,2R)-2-hydroxy-2-methyl-indan-1-yl]-3-(2-imino-4,4-dimethyl-6-oxo-hexahydropyrimidin-1-yl)-1,1-dimethyl-indane-5-carboxamide]  190 nM
2. CC1(C)CC(=O)N([C@H]2c3cc(C(=O)N[C@@H]4c5ccccc5C[C@H]4O)ccc3CC2(C)C)C(=N)N1 [Example 87, N-[(1R,2R)-2-hydroxyindan-1-yl]-3-(2-imino-4,4-dimethyl-6-oxo-hexahydropyrimidin-1-yl)-2,2-dimethyl-indane-5-carboxamide]  105 nM
3. CCC1(CC)CC(=O)N([C@@H]2CCOc3ccc(C(=O)N[C@@H](CO)c4ccccc4)cc32)C(=N)N1 [Example 92, (4R)-4-(4,4-diethyl-2-imino-6-oxo-hexahydropyimidin-1-yl)-N-[(1R)-2-hydroxy-1-phenyl-ethyl]chromane-6-carboxamide]  97.2 nM
4. CC1(C)CC(=O)N(C2CC(C)(C)c3ccc(C(=O)N[C@@H]4c5ccccc5C[C@H]4O)cc32)C(=N)N1 (stereo partly drawn) [Example 86, N-[(1R,2R)-2-hydroxyindan-1-yl]-3-(2-imino-4,4-dimethyl-6-oxo-hexahydropyrimidin-1-yl)-1,1-dimethyl-indane-5-carboxamide]  87.8 nM
5. CC1(C)CC(=O)N(C2c3cc(C(=O)N[C@@H]4c5ccccc5C[C@H]4O)ccc3OC2(C)C)C(=N)N1 (stereo partly drawn) [Example 91, N-[(1R,2R)-2-hydroxyindan-1-yl]-3-(2-imino-4,4-dimethyl-6-oxo-hexahydropyrimidin-1-yl)-2,2-dimethyl-3H-benzofuran-5-carboxamide]  45.2 nM
6. C[C@@H]1C[C@@H](N2C(=N)NC(C)(C)CC2=O)c2cc(C(=O)N[C@@H]3c4ccccc4C[C@@]3(C)O)ccc21 [Example 89, (1R,3R)-N-[(1R,2R)-2-hydroxy-2-methyl-indan-1-yl]-3-(2-imino-4,4-dimethyl-6-oxo-hexahydropyrimidin-1-yl)-1-methyl-indane-5-carboxamide]  43.5 nM
7. C[C@@H]1C[C@@H](N2C(=N)NC(C)(C)CC2=O)c2cc(C(=O)N[C@@H]3c4ccccc4C[C@]3(C)O)ccc21 [Example 90, (1R,3R)-N-[(1R,2S)-2-hydroxy-2-methyl-indan-1-yl]-3-(2-imino-4,4-dimethyl-6-oxo-hexahydropyrimidin-1-yl)-1-methyl-indane-5-carboxamide]  26.8 nM
8. CCC1(CC)CC(=O)N([C@@H]2Cc3ccc(C(=O)N[C@@H]4c5ccccc5C[C@H]4O)cc32)C(=N)N1 [Example 83, (8R)-8-(4,4-diethyl-2-imino-6-oxo-hexahydropyrimidin-1-yl)-N-[(1R,2R)-2-hydroxyindan-1-yl]bicyclo[4.2.0]octa-1(6),2,4-triene-3-carboxamide]  20 nM
9. CCC1(CC)CC(=O)N([C@@H]2CCOc3ccc(C(=O)N[C@@H]4c5ccccc5C[C@H]4N)cc32)C(=N)N1 [Example 97, (4R)-N-[(1R,2R)-2-aminoindan-1-yl]-4-(4,4-diethyl-2-imino-6-oxo-hexahydropyrimidin-1-yl)chromane-6-carboxamide]  19 nM
10. CC1(C)CC(=O)N([C@@H]2CCc3ccc(C(=O)N[C@@H]4c5ccccc5C[C@@]4(C)O)cc32)C(=N)N1 [Example 80, (3R)-N-[(1R,2R)-2-hydroxy-2-methyl-indan-1-yl]-3-(2-imino-4,4-dimethyl-6-oxo-hexahydropyrimidin-1-yl)indane-5-carboxamide]  18 nM
11. C[C@@H]1C[C@@H](N2C(=N)NC(C)(C)CC2=O)c2cc(C(=O)N[C@@H]3c4ccccc4C[C@H]3O)ccc21 [Example 82, (1R,3R)-N-[(1R,2R)-2-hydroxyindan-1-yl]-3-(2-imino-4,4-dimethyl-6-oxo-hexahydropyrimidin-1-yl)-1-methyl-indane-5-carboxamide]  15.5 nM
12. CCC1(CC)CC(=O)N([C@@H]2CCc3ccc(C(=O)N[C@@H]4c5ccccc5C[C@H]4O)cc32)C(=N)N1 [Example 85, (3R)-3-(4,4-diethyl-2-imino-6-oxo-hexahydropyrimidin-1-yl)-N-[(1R,2R)-2-hydroxyindan-1-yl]indane-5-carboxamide]  10.7 nM
13. CC1(C)CC(=O)N([C@@H]2CCc3ccc(C(=O)N[C@@H]4c5ccccc5C[C@]4(C)O)cc32)C(=N)N1 [Example 79, (3R)-N-[(1R,2S)-2-hydroxy-2-methyl-indan-1-yl]-3-(2-imino-4,4-dimethyl-6-oxo-hexahydropyrimidin-1-yl)indane-5-carboxamide]  9.6 nM
14. CCC1(CC)CC(=O)N([C@H]2c3cc(C(=O)N[C@@H]4c5ccccc5C[C@H]4O)ccc3O[C@]2(C)COC)C(=N)N1 [Example 75B, (2S,3S)-3-(4,4-diethyl-2-imino-6-oxotetrahydropyrimidin-1(2H)-yl)-N-((1R,2R)-2-hydroxy-2,3-dihydro-1H-inden-1-yl)-2-(methoxymethyl)-2-methyl-2,3-dihydrobenzofuran-5-carboxamide]  9.5 nM
15. CC1(C)CC(=O)N([C@@H]2CCc3ccc(C(=O)N[C@@H]4c5ccccc5C[C@H]4O)cc32)C(=N)N1 [Example 78, (3R)-N-[(1R,2R)-2-hydroxyindan-1-yl]-3-(2-imino-4,4-dimethyl-6-oxo-hexahydropyrimidin-1-yl)indane-5-carboxamide]  8.9 nM
16. CC[C@]1(C)CC(=O)N([C@@H]2C[C@@H](C)c3ccc(C(=O)N[C@@H]4c5ccccc5C[C@@]4(C)O)cc32)C(=N)N1 [Example 95, (1R,3R)-3-[(4R)-4-ethyl-2-imino-4-methyl-6-oxo-hexahydropyrimidin-1-yl]-N-[(1R,2R)-2-hydroxy-2-methyl-indan-1-yl]-1-methyl-indane-5-carboxamide]  8.8 nM
17. CC[C@]1(C)CC(=O)N([C@@H]2CCc3ccc(C(=O)N[C@@H]4c5ccccc5C[C@H]4O)cc32)C(=N)N1 [Example 81, (3R)-3-[(4R)-4-ethyl-2-imino-4-methyl-6-oxo-hexahydropyrimidin-1-yl]-N-[(1R,2R)-2-hydroxyindan-1-yl]indane-5-carboxamide]  6.6 nM
18. CC[C@]1(C)CC(=O)N([C@@H]2C[C@@H](C)c3ccc(C(=O)N[C@@H]4c5ccccc5C[C@]4(C)O)cc32)C(=N)N1 [Example 96, (1R,3R)-3-[(4R)-4-ethyl-2-imino-4-methyl-6-oxo-hexahydropyrimidin-1-yl]-N-[(1R,2S)-2-hydroxy-2-methyl-indan-1-yl]-1-methyl-indane-5-carboxamide]  6.5 nM
19. CC[C@]1(C)CC(=O)N([C@@H]2C[C@@H](C)c3ccc(C(=O)N[C@@H]4c5ccccc5C[C@H]4O)cc32)C(=N)N1 [Example 88, (1R,3R)-3-[(4R)-4-ethyl-2-imino-4-methyl-6-oxo-hexahydropyrimidin-1-yl]-N-[(1R,2R)-2-hydroxyindan-1-yl]-1-methyl-indane-5-carboxamide]  3.4 nM
20. CCC1(CC)CC(=O)N([C@@H]2CCCc3ccc(C(=O)N[C@@H]4c5ccccc5C[C@H]4O)cc32)C(=N)N1 [Example 94, (4R)-4-(4,4-diethyl-2-imino-6-oxo-hexahydropyrimidin-1-yl)-N-[(1R,2R)-2-hydroxyindan-1-yl]tetralin-6-carboxamide]  1.9 nM
21. CC1(C)CC(=O)N([C@@H]2CCc3ccc(C(=O)N[C@H]4CC(C)(C)Oc5ccccc54)cc32)C(=N)N1 [Example 84, (3R)-N-[(4S)-2,2-dimethylchroman-4-yl]-3-(2-imino-4,4-dimethyl-6-oxo-hexahydropyrimidin-1-yl)indane-5-carboxamide]  0.9 nM
22. CCC1(CC)CC(=O)N([C@H]2c3cc(C(=O)N[C@@H]4c5ccccc5C[C@H]4O)ccc3O[C@@]2(C)COC)C(=N)N1 [Example 75A, (2R,3S)-3-(4,4-diethyl-2-imino-6-oxotetrahydropyrimidin-1(2H)-yl)-N-((1R,2R)-2-hydroxy-2,3-dihydro-1H-inden-1-yl)-2-(methoxymethyl)-2-methyl-2,3-dihydrobenzofuran-5-carboxamide]  0.4 nM
